Test results reported in patent US20220347186A1, “METHODS AND COMPOSITIONS FOR TREATING SICKLE CELL DISEASE AND THALASSEMIA” (THE UNIVERSITY OF CHICAGO, priority 2019, published 2022).
Entries after “also recorded” stand apart in the source; their conditions may differ. Blank lines part the entries; values can stand above or below the compound they belong to.

Tests used:
HEL cells [1] = assay: Sanger sequencing of HBG1/2 cDNA, HBG1 vs HBG2 ratio, HEL cells; format: cell-based, human; conditions: DMSO vs JQ1 treatment, sequencing peak heights
K562 cells [2] = assay: RNA-seq gene expression in K562 cells; format: cell-based, human
Description: (§1) K562, HEL, and HL-60 cells were cultured in RPMI 1640 medium supplemented with 10% FBS. TF-1 cells were cultured in RPMI 1640 medium supplemented with 10% FBS and 4 ng/mL GM-CSF. Before treatment, TF-1 cells were washed 4× with RPMI 1640 without supplements, and cultured in RPMI 1640 medium with 10% FBS but no GM-CSF for 24 hours. 4 ng/mL GM-CSF or 3 units/mL EPO were added at the time of treatment set up. K562, HEL, and HL-60 cells were cultured as normal until treatment set up. JQ1 (Sigma-Aldrich, SML1524), CPI-0610 (Selleck Chemicals, S7853), and PLX51107 (MedChemExpress, HY-111422) were dissolved in DMSO to 10 mM concentration and stored in −80° C. All three inhibitors were applied to cells at 200 nM, with parallel DMSO treatment (0.002%) as control. JQ1 and PLX51107 were added to cell culture at day 0 without additional treatments up to day 5. CPI-0610 was reapplied to the cells on a daily basis.
(§2) Sample RNA libraries were prepared using the KAPA mRNA HyperPrep Kit (Roche, KK8580) with 1 μg input RNA and submitted for sequencing. Raw reads in fastq format were aligned to the hg19 reference genome using HISAT2(38) with Gencode gene and transcript annotation (GRCh37.p13)(39). Gene expression was quantified and compared by tools in the Cuffliks package (40). GO analysis and term clustering was performed using g:Profiler and Cytoscape following the protocols published by Reimand et al (41).

K562 cells [3] = assay: RT-qPCR quantification of gene expression in K562 cells; format: cell-based, human; conditions: for HBB, HBG1/2 and HBE1 expression compared with JQ1: CPI-0610 reapplied daily, PLX51107 once at day 0
Description: as §1
(§3) cDNA libraries for mRNAs were made from 1 μg input RNA using High-Capacity cDNA Reverse Transcription Kit (ThermoFisher, 4368814). Gene expressions were quantified using Power SYBR Green PCR Master Mix (Thermofisher, 4367659). For microRNAs, cDNA libraries were made with Taqman Advanced miRNA cDNA Synthesis Kit (Thermofisher, A28007). miR-15A and miR-16-1 were quantified using the Taqman Advanced miRNA Assays (ThermoFisher, A25576) specific to hsa-miR-15a-5p (assay ID: 477858_mir) and hsa-miR-16-5p (assay ID: 477860_mir).

TF-1 cells [4] = assay: RNA-seq gene expression in TF-1 cells; format: cell-based, human
Description: as §1, §2

K562 cells [5] = assay: Sanger sequencing of HBG1/2 cDNA, HBG1 vs HBG2 ratio, K562 cells; format: cell-based, human; conditions: DMSO vs JQ1 treatment, sequencing peak heights
K562 cells [6] = assay: Cell growth and viability of K562 cells with BET inhibitor; format: cell-based; conditions: 200 nM vs DMSO control
Description: as §1

K562 cells [7] = assay: Benzidine-hematoxylin staining for hemoglobin producing cells; format: cell-based; conditions: 200 nM
Description: as §1
K562 cells were counted, and 200,000 cells were collected by spinning at 400 g. […]
At least three randomly selected fields of stained cells were imaged at 40× magnification. […] The numbers of benzidine-positive cells and the intensity of benzidine staining were quantified in the benzidine channel, whereas the total cell number and abnormal nuclear morphology were quantified in the hematoxylin channel. Results of all fields from each slide were summed for the final quantification.

BET proteins = conditions: cited from earlier work; for Affinity among BET family members: BRD2/BRD3/BRD4/BRDT, literature refs 17, 18; for Bromodomain preference (BD1 vs BD2): BET proteins
[8] = system: β-globin locus in TF-1 cells; assay: 3C-qPCR interaction frequency at the β-globin locus in TF-1 cells; format: cell-based, human
Description: as §1, with “JQ1 and PLX51107 were added to cell culture at day 0 without additional treatments up to day 5. CPI-0610 was reapplied to the cells on a daily basis.” left out
Methods for chromatin conformation capture (3C) qPCR was adapted from Hagège et al. (42). […] The digestion efficiency, sample purity, and DNA concentration of each sample were assessed by qPCR to exclude low-quality samples prior to the 3C quantification. Calculated quantity of each primer pairs was normalized as number of templates per million B13 control site template. Additionally, because the Gg primer anneals to both HBG1 and HBG2 fragments, while the Ag primer anneals to only HBG2 fragment, the Gg primer signal was subtracted by Ag primer signal to quantify the HBG1 interaction frequency. […]

[9] = system: β-globin locus in K562 cells; assay: 3C-qPCR interaction frequency at the β-globin locus in K562 cells; format: cell-based, human
Description: as §1
Methods for chromatin conformation capture (3C) qPCR was adapted from Hagège et al. (42). Briefly, 10 million cells were collected and fixed with 1% formaldehyde for 5 minutes in PBS with 10% FBS for 5 minutes, then quenched by 124 mM glycine on ice. The fixed cells were then lysed and digested by 400 units of EcoRI (NEB, R3101). Small aliquots of the samples were taken before and after the digestion as digestion controls. Following the digestion, the samples were diluted and ligated by T4 DNA ligase (NEB, M0202). The samples were then reverse-crosslinked, and DNA was purified by phenol-chloroform extraction. The digestion efficiency, sample purity, and DNA concentration of each sample were assessed by qPCR to exclude low-quality samples prior to the 3C quantification. Calculated quantity of each primer pairs was normalized as number of templates per million B13 control site template. Additionally, because the Gg primer anneals to both HBG1 and HBG2 fragments, while the Ag primer anneals to only HBG2 fragment, the Gg primer signal was subtracted by Ag primer signal to quantify the HBG1 interaction frequency. […]

HEL cells [10] = assay: Cell growth and viability of HEL cells with BET inhibitor; format: cell-based; conditions: 200 nM vs DMSO control, days 0-3
Description: as §1

HL-60 cells = assay: RT-qPCR quantification of hemoglobin gene expression in HL-60 cells; format: cell-based, human; conditions: 200 nM
Description: as §1, with “CPI-0610 was reapplied to the cells on a daily basis.” left out
as §3

HEL cells [11] = assay: RT-qPCR quantification of hemoglobin gene expression in HEL cells; format: cell-based, human; conditions: 200 nM
Description: as §1, §3

GATA1 in K562 cells = assay: Immunoprecipitation and quantification of total and acetyl-GATA1; format: cell-based; conditions: K562 nuclear lysate
Description: Nuclear protein was extracted according to previously described protocol (45). 10% of the nuclear protein extraction was saved as input. The remaining nuclear extract was diluted with non-denaturing IP buffer (20 mM Tris-HCl pH 8, 137 mM NaCl, 10% glycerol, 1% Triton X-100, 2 mM EDTA) and pre-cleared with normal rat IgG (Santa Cruz, sc2026) and Dynabeads Protein G (ThermoFisher, 10004D). Pre-cleared solutions were split into two equal portions, and 5 μg of anti-GATA1 antibody (Santa Cruz, sc266) or normal rat IgG were added to either portion and incubated overnight at 4° C. overnight. Antibodies were then pulled-down using Dynabeads Protein G, and washed 1× with the IP buffer and 2× with PBS containing 1% Triton X-100. The beads were boiled in 2× protein loading buffer to dissociate the proteins. Input and IP-ed proteins were ran on SDS-PAGE gels and transferred to PVDF membranes. The input samples were blotted using anti-topoisomerase 1 (Abcam, ab109374) and anti-GATA1 antibodies, and the IP-ed samples were blotted with anti-acetyl-lysine antibody (Abcam, ab21623). Quantification of signal intensity was done by ImageJ, and GATA1 and acetyl-GATA1 signals were normalized to the topoisomerase 1 signals in each sample.

TF-1 cells [12] = assay: RT-qPCR quantification of gene expression in TF-1 cells; format: cell-based, human; conditions: for HBB, HBG1/2 and HBE1 expression compared with JQ1: CPI-0610 reapplied daily, PLX51107 once at day 0
Description: as §1, §3

[13] = Lifespan in culture medium; format: physicochemical
[14] = TF-1 cells under proliferative condition, 200 nM
[15] = TF-1 cells, both proliferation and erythropoietic conditions

SMILES: Cc1sc2c(c1C)C(c1ccc(Cl)cc1)=N[C@@H](CC(=O)OC(C)(C)C)c1nnc(C)n1-2 [JQ1]
Ratio of HBG1 vs. HBG2 (HEL cells [1]): no significant changes
Expression of heme biosynthesis pathway genes, notably ALAS2 (K562 cells [2]; RNA-seq): upregulated
Expression of α- and β-globin hemoglobin genes (K562 cells [2]; RNA-seq): increased the expression of all α- and β-globin hemoglobin genes except HBB and HBD
GATA1 expression (K562 cells [2]; RNA-seq): did not change
HEMGN expression (K562 cells [2]; RNA-seq): significantly suppresses
NR2F2 expression (K562 cells [2]; RNA-seq): did not change
Differentiation (GO analysis of up- and down-regulated genes) (K562 cells [2]; day 3 and day 5): specifically promotes erythroid, but not myeloid differentiation
Transcriptome (gene expression) change (K562 cells [2]; day 3 and day 5, JQ1 vs DMSO): substantially changed the transcriptome
miR-15A expression (K562 cells [3]): significantly upregulated
miR-16-1 expression (K562 cells [3]): significantly upregulated
HBB expression (K562 cells [3]; 200 nM, 5-day time course): unaffected
HBE1 expression (K562 cells [3]; 200 nM, 5-day time course): upregulated
HBG1/2 expression (K562 cells [3]; 200 nM, 5-day time course): upregulated
MYC expression (K562 cells [3]; 200 nM, up to 4 days after the initial treatment): consistently suppressed
BGLT3 expression increase (K562 cells [3]; RT-qPCR): 6 fold
HEMGN expression (K562 cells [3]; RT-qPCR): significantly suppressed
MYB expression (K562 cells [3]; RT-qPCR): significantly suppressed
GATA1 expression (TF-1 cells [4]; TF-1 cells): did not change
HBA1/2 expression (α-globin locus) (TF-1 cells [4]; TF-1 cells): upregulated
HBE1 expression (β-globin locus) (TF-1 cells [4]; TF-1 cells): specifically induced
HEMGN expression (TF-1 cells [4]; TF-1 cells): significantly suppresses
KLF1 expression (TF-1 cells [4]; TF-1 cells, erythropoietic condition): slightly decreased
ALAS2 expression (TF-1 cells [4]; TF-1 cells, especially under erythropoietic conditions): upregulated
KLF1 expression (TF-1 cells [4]; TF-1 cells, proliferative condition): significantly suppressed
NR2F2 expression (TF-1 cells [4]; proliferative TF-1 cells): significantly suppressed
Ratio of HBG1 vs. HBG2 (K562 cells [5]): no significant changes
Cell growth (K562 cells [6]): grow slower; also recorded: not significantly affected; also recorded: slightly suppresses cell growth, but this effect was not statistically significant; also recorded: slightly suppress cell growth, but this effect was not statistically significant
Cell viability (K562 cells [6]): unaffected; also recorded: not significantly affected; also recorded: did not affect cell viability
Percentage of hemoglobin producing cells (benzidine-hematoxylin staining) (K562 cells [7]; day 3): ~6%
Percentage of hemoglobin producing cells (benzidine-hematoxylin staining) (K562 cells [7]; day 5): over 10%
Affinity among BET family members (BET proteins): higher affinity for BRD3 and BRD4
Interaction with LCR across the entire locus, except at the HBE1 promoter region ([8]; both proliferative and erythropoietic conditions, 72 hours): modest decrease
Interaction between 5′BG and upstream fragments ([8]; more prominent in the erythropoietic condition): slight decrease
Interaction frequency of 5′BG (5′BGLT3 fragment) with the HBG1/2 region and the LCR [9]: significantly increase
Increase in interaction frequency between the LCR and the HBG promoter region ([9]; 72 hours of JQ1 treatment): over 2 fold
Interaction frequency between the LCR and the rest of the β-globin locus ([9]; 72 hours of JQ1 treatment): slight increases
Cell growth (HEL cells [10]): grow slower; also recorded: significantly suppress cell growth by Day 3
Cell viability (HEL cells [10]): unaffected; also recorded: did not affect cell viability
HBB, HBG1/2 and HBE1 expression (HL-60 cells): had no effect
HBB expression (HEL cells [11]): suppressing
HBE1 expression (HEL cells [11]): significantly upregulated
HBG1/2 expression (HEL cells [11]): significantly upregulated
GATA1 acetylation (GATA1 in K562 cells; IP, anti-acetyl-lysine): remained unchanged; also recorded: does not affect
Total GATA1 level (GATA1 in K562 cells; normalized to TOP1): did not affect
miR-15A expression (TF-1 cells [12]; TF-1 cells): significantly upregulated
miR-16-1 expression (TF-1 cells [12]; TF-1 cells): significantly upregulated
HBB expression (TF-1 cells [12]; TF-1 cells treated with both EPO and JQ1): significantly decreased
HBE1 expression increase (TF-1 cells [12]; TF-1 cells treated with both EPO and JQ1, day 5): over 200 fold
HBB expression (TF-1 cells [12]; [14]): not observed
HBE1 expression (TF-1 cells [12]; TF-1 cells, 200 nM, without EPO): only upregulated
BCL11A expression (TF-1 cells [12]; TF-1 cells, RT-qPCR): significantly suppressed
MYB expression (TF-1 cells [12]; TF-1 cells, RT-qPCR): significantly suppressed
HEMGN expression (TF-1 cells [12]; TF-1 cells, RT-qPCR, especially under erythropoietic condition): significantly suppressed
Proportion of HBB transcripts relative to total β-globin transcripts (TF-1 cells [12]; [15]): significantly decreased
Proportion of HBE1 transcripts relative to total β-globin transcripts (TF-1 cells [12]; [15]): increased

SMILES: Cc1noc(C)c1-c1cnc2c(-c3ccc(C(=O)O)cc3)cn([C@@H](C)c3ccccn3)c2c1 [PLX51107]
HBB, HBG1/2 and HBE1 expression compared with JQ1 (K562 cells [3]; 200 nM): mimic the effects of JQ1
Bromodomain preference (BD1 vs BD2) (BET proteins): preferentially binds to BD1
Affinity among BET family members (BET proteins): somewhat lower affinity for BRDT
HBB expression (TF-1 cells [12]; [14]): significantly suppressed
HBB, HBG1/2 and HBE1 expression compared with JQ1 (TF-1 cells [12]; TF-1 cells, 200 nM): mimic the effects of JQ1

Lifespan in culture medium [13]: short lifespan
SMILES: Cc1noc2c1-c1ccccc1C(c1ccc(Cl)cc1)=N[C@H]2CC(N)=O [CPI-0610]
HBB, HBG1/2 and HBE1 expression compared with JQ1 (K562 cells [3]; 200 nM): mimic the effects of JQ1
Bromodomain preference (BD1 vs BD2) (BET proteins): preference for the second bromodomain (BD2)
Affinity among BET family members (BET proteins): comparable affinity
HBB, HBG1/2 and HBE1 expression compared with JQ1 (TF-1 cells [12]; TF-1 cells, 200 nM): mimic the effects of JQ1
